In patent US20240252673A1, “ANTI-TISSUE FACTOR ANTIBODY-DRUG CONJUGATES AND THEIR USE IN THE TREATMENT OF CANCER” (priority 2017, published 2024):
Where a SMILES comes first, the peptide text is derived from it. [ ]: non-standard residue; d: D form. The star is where a group is joined. Dolaproine = CO[C@@H]([C@@H]1CCCN1)[C@@H](C)C(=O)O; Dil = CC[C@H](C)[C@H](NC)[C@@H](CC(=O)O)OC; X1 = C[C@@H](N*)[C@@H](O)c1ccccc1; NMeV = CN[C@H](C(=O)O)C(C)C

Test: Phase I/II dose-escalation study: plasma pharmacokinetics
Format: in vivo, human
Conditions: after tisotumab vedotin, cycle 1 and cycle 2, all dose cohorts (FIG. 4)
Method: A first-in-human phase I/II dose-escalating study following a 3+3 dose-escalation design was conducted in order to test the safety of tisotumab vedotin in 27 subjects with locally advanced and/or metastatic cancer of various types including cervical cancer (FIG. 2). Tisotumab vedotin was administered by intravenous infusion at doses ranging from 0.3 mg/kg to 2.2 mg/kg on day 1 of a 21-day cycle for four cycles (i.e., each treatment cycle was 3 weeks). Patients with stable disease (SD) or better at the end of four cycles had the option to continue treatment with tisotumab vedotin for eight additional cycles (FIG. 2). Tumor evaluations were performed by CT scans every six weeks. In order to qualify for SD, results of the CT scan scheduled for week six needed to be SD or better. Two CT scans were performed outside the per-protocol defined window.
A primary objective of the study was to assess the safety and tolerability in a mixed population of patients with specified solid tumors. Adverse event (AE) severity was graded according to Common Terminology Criteria for Adverse Events (CTCAE) version 4.03. Secondary objectives of the study included determining the pharmacokinetic (PK) profile of tisotumab vedotin and preliminary evaluation of anti-tumor activity as assessed according to Response Evaluation Criteria in Solid Tumors [RECIST] version 1.1. Dose-limiting toxicities (DLTs) were determined during the first cycle and were defined as grade≥3 events possibly related to tisotumab vedotin. […] Tumor biopsies were required at baseline for TF expression which was assessed by immunohistochemistry utilizing tisotumab. TF staining intensity was determined using the H-scoring system.
The geometric means (% CV) of the time to reach Cmax (Tmax)(hr), maximum concentration (Cmax)(ng/mL), and area under the concentration time curve (AUC)0-t (hr*ng/mL) was measured for the pharmacokinetics (PK) portion of the study (Table 3). Low levels of unconjugated MMAE were measured in systemic circulation (FIG. 4).

CC[C@H](C)[C@@H]([C@@H](CC(=O)N1CCC[C@H]1[C@H](OC)[C@@H](C)C(=O)N[C@H](C)[C@@H](O)c1ccccc1)OC)N(C)C(=O)[C@@H](NC(=O)[C@@H](NC)C(C)C)C(C)C [MMAE, monomethyl auristatin E] (H-[NMeV]V[Dil][Dolaproine]-X1)
unconjugated MMAE in systemic circulation: Low levels
